# Test results reported in paper PMC11802874, “The hypolipidemic effect of MI-883, the combined CAR agonist/ PXR antagonist, in diet-induced hypercholesterolemia model” (Nature Communications, 2025).
# Several values for one entry are separate records, joined by “and”; a condition that tells them apart may be missing. Equal entries are not always repeated.
# Tests used:
# [1] = Stability in mouse plasma; format: in vitro ADME; details: read-out: Stability in mouse plasma, t1/2
# Excerpt: (§1) Plasma protein binding, and stability in human and mouse plasma have been tested as previously described.
# [2] = test system: HepaRG KO CAR cells; test: RT-qPCR mRNA expression in HepaRG KO CAR cells; format: cell-based, human; details: Phenobarbital 500 μM, CITCO 1 μM, MI 883 1 μM; ctrl = 1
# Excerpt: (§3) HepaRG cells from Biopredic (Rennes, France) were cultivated and differentiated on the 12-well plates. […] Several batches of HepaRG KO CAR (CAR Knockout HepaRG™ Cells, MTOX1012-1VL, RRID:CVCL_B6AA) and PXR Knockout HepaRG™ Cells, MTOX1011-1VL, RRID:CVCL_B6AS) cells have been obtained from Sigma-Aldrich/Merck (Darmstadt, Germany) and cultivated according to the provider’s protocols. […] Experiments with HepaRG KO PXR and HepaRG KO CAR cells have been performed in duplicates at least in two independent experiments.
# (§4) RT-qPCR was used to examine gene expression in 2D and 3D PHH, HepaRG cells, or in mouse liver or intestine (ileum) samples as we have described before[60]–[62].
# (§5) All qRT-qPCR experiments including Trizol reagent (Life Technologies) total RNA isolation, reverse-transcription using a random hexaprimer, and the MMLV Reverse Transcriptase Kit (ThermoFisher Scientific) we have described before^19. qPCR was performed using TaqMan Fast Advanced Master Mix with TaqMan probes (ThermoFisher Scientific). […] The delta-delta method was used for gene expression quantification normalized to at least two reference genes. Three technical replicates were used for each reaction considering the MIQE guidelines. Data are presented as fold induction to vehicle-treated cells/animals.
# [3] = target: T1, human CAR variant 3 (Homo sapiens, UniProt Q14994, DEL233-236); test: CAR3 luciferase reporter assay (CYP2B6-luc) in HepG2 cells; format: cell-based
# T1 construct: host or cells: HepG2
# T1 sequence (Q14994 with tags, fused parts or gaps isoform Q14994-8 DEL233-236): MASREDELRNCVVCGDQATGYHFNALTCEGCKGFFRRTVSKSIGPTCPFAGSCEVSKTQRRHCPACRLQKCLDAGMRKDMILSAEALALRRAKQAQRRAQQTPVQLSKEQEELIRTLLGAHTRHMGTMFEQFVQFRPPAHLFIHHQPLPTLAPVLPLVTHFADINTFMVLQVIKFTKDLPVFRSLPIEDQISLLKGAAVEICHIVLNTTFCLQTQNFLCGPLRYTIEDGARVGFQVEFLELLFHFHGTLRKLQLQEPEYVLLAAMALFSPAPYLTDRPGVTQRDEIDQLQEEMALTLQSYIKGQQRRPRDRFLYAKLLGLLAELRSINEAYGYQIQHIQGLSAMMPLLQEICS
# T1 sequence (P19793 1-462 partner): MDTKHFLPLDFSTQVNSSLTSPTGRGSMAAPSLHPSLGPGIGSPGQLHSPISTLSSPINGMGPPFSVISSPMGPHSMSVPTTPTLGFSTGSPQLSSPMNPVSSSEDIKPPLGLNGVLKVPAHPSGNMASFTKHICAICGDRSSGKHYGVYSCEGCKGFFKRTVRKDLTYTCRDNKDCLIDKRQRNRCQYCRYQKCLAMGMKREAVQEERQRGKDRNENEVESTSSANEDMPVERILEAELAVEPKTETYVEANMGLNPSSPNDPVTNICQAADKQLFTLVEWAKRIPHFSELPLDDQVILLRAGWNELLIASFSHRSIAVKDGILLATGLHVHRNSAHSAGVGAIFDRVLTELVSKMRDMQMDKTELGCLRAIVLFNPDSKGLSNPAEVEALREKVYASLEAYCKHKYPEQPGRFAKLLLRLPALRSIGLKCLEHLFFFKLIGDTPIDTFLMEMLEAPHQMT
# Experimental: CAR3 luciferase reporter assay (with CYP2B6-luc) was performed in human hepatocellular carcinoma HepG2 cells as we described[19] For the CAR3 assay (Fig. 1d), a CYP2B6-luc reporter plasmid (originally entitled B-1.6k/PB/XREM) was kindly donated by Dr. Hongbing Wang (University of Maryland School of Pharmacy, Baltimore, MD, USA). All expression vectors are described in Supplementary, Chapter 4).
# Cells were treated for 24 h with MI-883 in a range of concentration from 0.1 nM to 30 µM (n = 3). The half maximal effective concentration (EC50) to activate CAR or inhibit PXR (IC50) in the assays was calculated from at least eight points of the dose-response curves using the GraphPad Prism software.
# [4] = Metabolic stability in mouse liver S9 fraction; details: male, CD-1, mouse, liver S9 fraction
# Experimental: (§2) Shimadzu HPLC system including vacuum degasser, gradient pumps, reverse phase HPLC column, column oven, and autosampler with an API 4000 QTRAP mass spectrometer (Applied Biosystems/MDS Sciex (AB Sciex) with Turbo V ion source and TurboIonspray interface were used. The reference compound midazolam, which is metabolized both by phase I and phase II enzymes, was used. The elimination constant (kel), half-life (t1/2), and intrinsic clearance (Clint) were determined[19] (Table S1).
# [5] = test system: HepaRG cells; test: RT-qPCR mRNA expression in differentiated HepaRG cells; details: Phenobarbital 500 μM, CITCO 1 μM, MI 883 1 μM; ctrl = 1
# Excerpt: as §3, §4, §5
# [6] = Mouse plasma protein binding; format: in vitro ADME
# Excerpt: as §1
# [7] = test system: humanized PXR-CAR-CYP3A4/3A7 mice; test: Hepatic induction study in humanized PXR-CAR-CYP3A4/3A7 mice (i.p.); format: in vivo, mouse; details: single agents i.p.: Rif 3×5 mg/kg, CITCO 10 mg/kg two doses, MI-883 10 mg/kg 3 days
# Excerpt: In the induction experiments, […] was sampled from the gallbladder.
# [8] = target: T2, human CAR ligand-binding domain (LBD) (Homo sapiens, UniProt Q14994); test: TR-FRET CAR coactivator assay (LanthaScreen); format: biochemical
# T2 construct: purchased ThermoFisher Scientific PV4836
# T2 sequence (Q14994 109-348 isoform Q14994-2 limits assumed, other chains not shown): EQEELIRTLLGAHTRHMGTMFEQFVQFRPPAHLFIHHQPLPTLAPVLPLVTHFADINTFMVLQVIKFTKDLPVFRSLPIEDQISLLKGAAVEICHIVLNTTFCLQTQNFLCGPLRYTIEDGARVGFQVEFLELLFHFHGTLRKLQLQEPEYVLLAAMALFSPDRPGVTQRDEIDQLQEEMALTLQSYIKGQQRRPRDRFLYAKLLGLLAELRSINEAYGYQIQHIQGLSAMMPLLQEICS
# [9] = Metabolic stability in human liver S9 fraction; details: human, liver S9 fraction
# Experimental: as §2
# Supplementary Figure 1. […] Test compounds (1 μM, final DMSO concentration 1%) were incubated at 37 °C with shaking at 100 rpm. Four time points over 120 minutes have been analyzed. The reactions were stopped by adding 420 μL of acetonitrile-water mixture (90:10). Supernatants were analyzed by the HPLC system coupled with a tandem mass spectrometer. The percentage (in % of initial concertation) of the test compounds remaining after incubation in plasma and their half-lives (t1/2) were calculated. […] The stability of the compound was tested in human liver S9 fraction. Cofactors were used such as UDPGA (for glucuronidation), PAPS (for sulfation), and reduced glutathione (for conjugation of GSH). Compounds were tested in triplicate with or without NADPH. Propantheline and midazolam were used as unstable control compounds in the experiments. Data represent the means±S.D. from at least three independent samples.
# [10] = test system: primary human hepatocytes (PHH); test: RT-qPCR mRNA expression in 2D primary human hepatocytes
# Excerpt: The cells were cultivated as 2D monolayers according to the manufacturer’s protocol.
# as §4
# [11] = target: GRα (Homo sapiens, UniProt P04150); test: Luciferase reporter gene assay GRα, HepG2; details: ligand: Dexamethasone 100 nM
# Chain of GRα (P04150 whole entry): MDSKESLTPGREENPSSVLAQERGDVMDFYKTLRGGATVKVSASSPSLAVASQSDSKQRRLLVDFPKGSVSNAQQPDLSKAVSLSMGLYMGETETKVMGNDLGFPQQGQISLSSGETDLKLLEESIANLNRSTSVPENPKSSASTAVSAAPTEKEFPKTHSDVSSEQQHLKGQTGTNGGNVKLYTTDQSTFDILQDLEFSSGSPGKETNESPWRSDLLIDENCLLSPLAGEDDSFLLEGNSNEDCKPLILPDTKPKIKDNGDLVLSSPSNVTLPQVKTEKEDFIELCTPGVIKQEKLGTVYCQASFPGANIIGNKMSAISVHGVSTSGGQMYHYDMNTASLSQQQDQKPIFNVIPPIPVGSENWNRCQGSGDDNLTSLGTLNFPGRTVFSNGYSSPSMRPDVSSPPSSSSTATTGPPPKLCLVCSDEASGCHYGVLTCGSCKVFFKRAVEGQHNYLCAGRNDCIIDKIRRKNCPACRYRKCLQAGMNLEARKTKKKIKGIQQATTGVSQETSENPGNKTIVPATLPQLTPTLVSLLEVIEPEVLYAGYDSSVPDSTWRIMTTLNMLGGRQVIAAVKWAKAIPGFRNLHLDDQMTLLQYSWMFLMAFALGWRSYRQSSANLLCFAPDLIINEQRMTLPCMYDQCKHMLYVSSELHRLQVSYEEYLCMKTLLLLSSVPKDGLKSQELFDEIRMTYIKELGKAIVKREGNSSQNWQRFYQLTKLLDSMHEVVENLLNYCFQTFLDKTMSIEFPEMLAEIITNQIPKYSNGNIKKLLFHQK
# Excerpt: Gal4-LBD constructs of tested nuclear receptors have been used together with pGL4.31[luc2P/GAL4UAS/Hygro] luciferase reporter construct and pRL-TK Renilla expression vector (both from Promega, Hercules, USA) in HepG2 cells transfected with Lipofectamine 2000 or 3000 reagents. For GRα and FXR receptors, full-length expression vectors have been used with pGRE-luc or pFXRE-luc luciferase constructs. For the aryl hydrocarbon receptor (AhR), p1A1-luc construct was used with only pRL-TK vector for transfection normalization. A dual reporter assay (Promega, Hercules, USA) was used to analyze both firefly and Renilla luciferase activities.
# Gal4-LBD constructs of tested nuclear receptors have been used together with pGL5-luc luciferase reporter construct and pRL-TK Renilla expression vector in HepG2 cells transfected with Lipofectamine 2000 or 3000 reagents. For GRα and FXR receptors, full-length expression vectors have been used with pGRE-luc or pFXRE-luc luciferase constructs. For the aryl hydrocarbon receptor (AhR), p1A1-luc construct was used with only pRL-TK vector for transfection normalization. […] Bars represent means±S.D. (n=3).
# [12] = single agent 5 μM: MI-883, CITCO (5 μM) alone
structure (smiles),measurement,setting,value
"Clc1ccc(-c2nc3sccn3c2C=NOCc2ccc(Cl)c(Cl)c2)cc1 [CITCO, 6-(4-chlorophenyl)imidazo[2,1-b][1,3]thiazole-5-carbaldehyde-O-(3,4-dichlorobenzyl)oxime, reference compound]",half-life,[1],> 120 min
same,"CYP2B6 mRNA, RT-qPCR, HepaRG KO CAR (Fig. 1f), replicates",[2],1.15 and 1.05 and 0.84
same,"CAR3 variant activation (Fig. 1d), replicates","[3]; concentration 0.01 (unit not given), HepG2, 24 h",0.85 and 0.95 and 1.03
same,"CAR3 variant activation (Fig. 1d), replicates",[3]; concentration 0.1 (unit not given),0.4 and 1 and 3.5
same,"CAR3 variant activation (Fig. 1d), replicates",[3]; concentration 1 (unit not given),1.25 and 6.4 and 1.2
same,"CAR3 variant activation (Fig. 1d), replicates",[3]; concentration 10 (unit not given),10 and 12.8 and 12
same,"CAR3 variant activation (Fig. 1d), replicates",[3]; concentration 30 (unit not given),20.7 and 11.1 and 15.3
same,half-life,[4],39.2 min
same,microsomal CLint,[4],9 µL/min/mg
same,"CYP2B6 mRNA, RT-qPCR, HepaRG (Fig. 1f), replicates",[5],6.95 and 5.3 and 5.5
same,fraction unbound,[6],0.02
same,"hepatic CYP3A4 mRNA, hPXR/hCAR/CYP3A4/7 mice (Fig. 3e), individual animals",[7],3.5706 and 5.153 and 1.198 and 3.457
same,"hepatic Cyp2b10 mRNA, hPXR/hCAR/CYP3A4/7 mice (Fig. 3e), individual animals",[7],6.356 and 6.521 and 7.777 and 9.457
same,"TR-FRET CAR Coactivator assay, mean signal (Fig. 1b)",[8]; 100pM,1
same,"TR-FRET CAR Coactivator assay, mean signal (Fig. 1b)",[8]; 1nM,1.176
same,"TR-FRET CAR Coactivator assay, mean signal (Fig. 1b)",[8]; 10nM,1.375
same,"TR-FRET CAR Coactivator assay, mean signal (Fig. 1b)",[8]; 30nM,1.960
same,"TR-FRET CAR Coactivator assay, mean signal (Fig. 1b)",[8]; 100nM,2.115
same,"TR-FRET CAR Coactivator assay, mean signal (Fig. 1b)",[8]; 0.5μM,2.111
same,"TR-FRET CAR Coactivator assay, mean signal (Fig. 1b)",[8]; 1 μM,2.154
same,"TR-FRET CAR Coactivator assay, mean signal (Fig. 1b)",[8]; 10 μM,2.134
same,"TR-FRET CAR Coactivator assay, mean signal (Fig. 1b)",[8]; 30 μM,2.146
same,half-life at 2 µM,[9],22.5 min
same,microsomal CLint at 2 µM,[9],15 µL/min/mg
same,"CYP2B6 mRNA, RT-qPCR, PHH (Fig. 1g), replicates","[10]; 1 mM, ctrl = 1",10.10 and 18.10 and 7.00
same,CYP2B6 mRNA in PHH 2 donors (Fig. 3c),[10]; [12],11.1246 and 12.1237
same,CYP3A4 mRNA in PHH 2 donors (Fig. 3c),[10]; [12],2.55 and 3.999
C[C@@H]1C[C@H]2[C@@H]3CCC4=CC(=O)C=C[C@]4(C)[C@@]3(F)[C@@H](O)C[C@]2(C)[C@@]1(O)C(=O)CO [Dexamethasone],"NRs assays: GRa (relative to ctrl, replicates)",[11],19.01 and 18.01 and 16.69
